From patent publication US20260116920A1, “HUMAN TRANSFERRIN RECEPTOR BINDING PEPTIDE” (PEPTIDREAM INC., priority 2021, published 2026)
Positions of bridges follow the written chain, without caps; N, C: chain ends. Non-standard residues stand in square brackets, D forms with d. Residues, ends and D or L forms follow the SMILES beside them. *: point of attachment. Trp(1-CH2COOH) = N[C@@H](Cc1cn(CC(=O)O)c2ccccc12)C(=O)O; Nle(6-morpholino) = N[C@@H](CCCCN1CCOCC1)C(=O)O; Phe(3-COOH) = N[C@@H](Cc1cccc(C(=O)O)c1)C(=O)O; NMePhe(3-Cl) = CN[C@@H](Cc1cccc(Cl)c1)C(=O)O; NMeY = CN[C@@H](Cc1ccc(O)cc1)C(=O)O; PEG4 = NCCOCCOCCOCCOCCC(=O)O; Carboxymethyl = O=C(O)C*

Biological target: T1, human transferrin receptor (hTfR) (Homo sapiens, UniProt P02786)
T1 construct: made in house
Assay: Evaluation of molecular interaction between transferrin receptor (hTfR) and peptide using surface plasmon resonance (SPR)
Assay type: binding
Conditions: peptide with linker, surface plasmon resonance; read-out: SPR (KD class for binding to hTfR)
Outline: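 Recombinant human TfR dimer (0.5 μM) was captured on a Ni-charged NTA chip and amine-coupled with EDC/NHS, then ethanolamine-capped. Peptides at 5–100 nM in HEPES pH 8.0 buffer with 150 mM NaCl, 0.05% Tween 20, 0.1% BSA and 1.0% DMSO were run by single-cycle kinetics; KD came from least-squares curve fitting.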

T1 sequence (P02786 89-760 limits assumed): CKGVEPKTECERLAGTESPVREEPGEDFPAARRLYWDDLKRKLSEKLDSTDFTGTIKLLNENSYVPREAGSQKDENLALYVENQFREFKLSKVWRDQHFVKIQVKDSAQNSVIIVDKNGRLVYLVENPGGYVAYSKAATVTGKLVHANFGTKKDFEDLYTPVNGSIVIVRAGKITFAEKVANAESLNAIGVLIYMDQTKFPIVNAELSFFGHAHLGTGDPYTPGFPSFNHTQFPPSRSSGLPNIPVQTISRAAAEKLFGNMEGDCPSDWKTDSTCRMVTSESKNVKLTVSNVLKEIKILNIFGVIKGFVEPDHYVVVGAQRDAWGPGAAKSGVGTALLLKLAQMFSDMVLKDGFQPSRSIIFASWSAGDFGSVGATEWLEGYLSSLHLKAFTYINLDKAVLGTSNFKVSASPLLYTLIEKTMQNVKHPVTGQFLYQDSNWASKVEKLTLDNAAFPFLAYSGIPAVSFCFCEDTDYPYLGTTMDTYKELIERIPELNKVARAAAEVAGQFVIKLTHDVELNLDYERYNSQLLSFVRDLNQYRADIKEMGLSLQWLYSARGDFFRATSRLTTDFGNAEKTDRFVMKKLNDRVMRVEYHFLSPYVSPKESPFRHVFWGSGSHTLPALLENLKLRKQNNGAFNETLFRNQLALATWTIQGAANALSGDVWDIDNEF

| Structure (SMILES) | Kd |
| --- | --- |
| CC[C@H](C)[C@@H]1NC(=O)[C@H](Cc2ccc(OCC(=O)O)cc2)NC(=O)[C@H](Cc2ccc(O)cc2)NC(=O)[C@H](CC(N)=O)NC(=O)[C@H](Cc2cn(CC(=O)O)c3ccccc23)NC(=O)[C@H](C(C)C)NC(=O)[C@H](Cc2cccc(Cl)c2)N(C)C(=O)[C@H](C(C)C)NC(=O)[C@H](C)NC(=O)CSC[C@@H](C(=O)NCCOCCOCCOCCOCCC(N)=O)NC(=O)[C@H](Cc2ccc(O)cc2)N(C)C(=O)[C@H](Cc2cccc(C(=O)O)c2)NC(=O)[C@H](CCCCN2CCOCC2)NC(=O)[C@H](CCCCN2CCOCC2)NC(=O)[C@H]([C@@H](C)CC)NC1=O [compound 240] ({CH2CO}-AV[NMePhe(3-Cl)]V[Trp(1-CH2COOH)]NYY(Carboxymethyl)II[Nle(6-morpholino)][Nle(6-morpholino)][Phe(3-COOH)][NMeY]C[PEG4]-NH2; thioether N-15) | 0.001 to 0.1 µM |
| CC[C@H](C)[C@@H]1NC(=O)[C@H](Cc2ccc(O)cc2)NC(=O)[C@H](Cc2ccc(O)cc2)NC(=O)[C@H](CC(N)=O)NC(=O)[C@H](Cc2c[nH]c3ccccc23)N(C)C(=O)[C@H](C(C)C)NC(=O)[C@H](Cc2ccccc2)N(C)C(=O)[C@H](C(C)C)NC(=O)[C@H](C)NC(=O)CSC[C@@H](C(=O)NCC(=O)N[C@H](CCC(=O)O)C(=O)N[C@H](CCC(=O)O)C(=O)N[C@H](CCC(=O)O)C(=O)N[C@H](CO)C(=O)N[C@H](CO)C(=O)N[C@@H](CCCCN=[N+]=[N-])C(N)=O)NC(=O)[C@H](Cc2ccc(O)cc2)N(C)C(=O)[C@H](Cc2ccc(O)cc2)NC(=O)[C@H](CCCNC(=N)N)NC(=O)[C@H](CCCCN)NC(=O)[C@H]([C@@H](C)CC)NC1=O [compound 241] | 0.001 to 0.1 µM |
